Assay results as given in patent US20220339187A1, “ANTIMICROBIAL PEPTIDE-SELENIUM NANOPARTICLES” (The University of Melbourne, priority 2019, published 2022).

Legend:
Assay in all cases: Bacterial growth inhibition test / MIC calculation
Format in all cases: cell-based
Conditions in all cases: MHB, 37° C., growth curves, linear regression, mean ± s.d.
[1] = test system: methicillin-resistant Staphylococcus aureus (MRSA) ATCC 43300
Text: (§1) The bacterial strains methicillin-sensitive Staphylococcus aureus (S. aureus) ATCC 29213, methicillin-resistant Staphylococcus aureus (MRSA) ATCC 43300, Enterococcus faecalis (E. faecalis) ATCC 29212, Escherichia coli (E. coli) ATCC 25922, Acinetobacter baumannii (A. baumannii) 2208 ATCC19606, Pseudomonas aeruginosa (P. aeruginosa) strain PAO1-LAC ATCC 47085, Klebsiella pneumoniae (K. pneumoniae) ATCC 13883 and multidrug-resistant K. pneumoniae (MDR), were obtained from the culture collection of the Oral Health Cooperative Research Centre, The Melbourne Dental School, University of Melbourne, Australia. Bacteria were cultured in Mueller Hinton Broth (MHB) at 37° C. 50 μL of suspensions with the desired concentrations of Se NPs, Se NP-ε-PL or pure ε-PL in PBS solution was added to each well of 96-well microplates, then 50 μL MHB with 2.5×10^6 bacteria/mL were added into each well. The plate was put into an iEMS microplate reader (Pathtech Pty Ltd, Melbourne, Australia) at a temperature of 37° C. to monitor bacterial growth by measuring the absorbance at wavelength of 630 nm for 24 h. Background absorbance values due to the Se NP solutions were subtracted from the measured absorbance values.
(§2) The absorbance values from bacteria growth curves at the time when the stationary phase starts (tsps) were taken and calculated as a percentage of the untreated control (Z=OD5/OD6×100%, where OD5 represents absorbance at tsps of experimental groups and OD6 represents the absorbance at tsps of the negative control group; all absorbance values had the culture medium background values subtracted). Concentration-inhibition curves were plotted with the percentages of absorbance, and linear regression analysis was adopted to determine the MIC at which Z becomes zero.

[2] = test system: Enterococcus faecalis (E. faecalis) ATCC 29212
Text: as §1, §2

[3] = test system: Acinetobacter baumannii (A. baumannii) 2208 ATCC19606
Text: as §1, §2

[4] = test system: methicillin-sensitive Staphylococcus aureus (S. aureus) ATCC 29213
Text: as §1, §2

[5] = test system: Klebsiella pneumoniae (K. pneumoniae) ATCC 13883
Text: as §1, §2

[6] = test system: Escherichia coli (E. coli) ATCC 25922
Text: as §1, §2

[7] = test system: Pseudomonas aeruginosa (P. aeruginosa) strain PAO1-LAC ATCC 47085
Text: as §1, §2

ε-poly-L-lysine [ε-PL] showed an MIC [1] of 11.6 ± 2.0 µg/mL, an MIC [2] of 27.1 ± 2.2 µg/mL and an MIC [3] of 21.6 ± 7.0 µg/mL. It also gave an MIC [4] of 7.5 ± 1.0 µg/mL, an MIC [5] of 12.0 ± 0.6 µg/mL and an MIC [6] of 13.2 ± 0.5 µg/mL. For the same substance, the MIC [7] was 9.5 ± 3.6 µg/mL.
